Data published in the supplement of paper PMC10627819.

Key:
[1] = system: S. pneumoniae D39V; experiment: fitness (endpoint OD595 vs no drug) (fraction); higher = more growth
In short: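 Fitness compares growth at the stationary-phase transition with the robust mean of no-drug control wells, as a ratio of optical densities. The ratio is capped at 1. Wells of 384-well plates held 30 µl, or 55 µl for S. pneumoniae, inoculated at OD595 0.01. Readings at OD595 every 30 min for 14 h at 37 °C were corrected against the first reading.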

[2] = system: B. subtilis 168; experiment: Bliss interaction score (quartile over a dose matrix) (fitness difference); higher = more antagonism (negative = synergy)
In short: (§1)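 Fitness was OD595 at entry into stationary phase divided by the plate's robust no-drug mean and capped at 1; single-drug fitness was inferred from combination data. The Bliss score is observed minus expected (product) fitness, summarised by quartiles over technical, biological and donor/recipient replicates.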

[3] = system: S. aureus DSM 20231; experiment: as above
In short: as §1

[4] = system: S. aureus Newman; experiment: as above
In short: as §1

[5] = system: S. pneumoniae D39V; experiment: as above
In short: as §1
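For Bliss interaction score (quartile over a dose matrix) in this document: first quartile when negative (synergy) and third quartile when positive (antagonism).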

CC1=C(C(=O)O)N2C(=O)[C@@H](NC(=O)[C@H](N)c3ccccc3)[C@H]2SC1 [Cephalexin] + CO[C@H]1/C=C/O[C@@]2(C)Oc3c(C)c(O)c4c(O)c(c(/C=N/N5CCN(C)CC5)c(O)c4c3C2=O)NC(=O)/C(C)=C\C=C\[C@H](C)[C@H](O)[C@@H](C)[C@@H](O)[C@@H](C)[C@H](OC(C)=O)[C@@H]1C [Rifampicin]
fitness, [1], one replicate
Settings	first compound 0.125 µg/mL	first compound 0.25 µg/mL	first compound 0.5 µg/mL	first compound 1 µg/mL	first compound 2 µg/mL	first compound 4 µg/mL
partner 0.025 µg/mL	–	–	–	0.258	0.0265	0.0322
partner 0.05 µg/mL	0.714	0.774	0.7	–	–	–
partner 0.1 µg/mL	0.314	0.257	0.225	–	–	–
partner 0.2 µg/mL	0.207	0.141	0.108	0	0	0

fitness, [1]
Settings	first compound 1 µg/mL	first compound 2 µg/mL	first compound 4 µg/mL
partner 0.05 µg/mL	0.301	0.0661	0.0542
partner 0.1 µg/mL	0.14	0.0642	0.0638

Settings	Bliss interaction score
[2]	0.12
[3]	0.0837
[4]	0.0156
[5]	-0.065

CC1=C(C(=O)O)N2C(=O)[C@@H](NC(=O)[C@H](N)c3ccccc3)[C@H]2SC1 [Cephalexin] + Clc1ccc(COC(Cn2ccnc2)c2ccc(Cl)cc2Cl)c(Cl)c1 [Miconazole]
fitness, [1], one replicate
Settings	first compound 0.125 µg/mL	first compound 0.25 µg/mL	first compound 0.5 µg/mL
partner 1.25 µg/mL	0.987	0.878	0.858
partner 2.5 µg/mL	0.885	0.826	0.819
partner 5 µg/mL	0.89	0.867	0.893

fitness, [1]
Settings	first compound 1 µg/mL	first compound 2 µg/mL	first compound 4 µg/mL
partner 1.073 µg/mL	–	–	0.0455
partner 2.145 µg/mL	–	–	0.0466
partner 4.29 µg/mL	0.482	0.37	0.234

Settings	Bliss interaction score
[2]	0.0898
[3]	0.0471
[4]	0.063
[5]	-0.0715

CC1=C(C(=O)O)N2C(=O)[C@@H](NC(=O)[C@H](N)c3ccccc3)[C@H]2SC1 [Cephalexin] + O=C1CN(/N=C/c2ccc([N+](=O)[O-])o2)C(=O)N1 [Nitrofurantoin]
fitness, [1], one replicate
Settings	first compound 0.125 µg/mL	first compound 0.25 µg/mL	first compound 0.5 µg/mL	first compound 1 µg/mL	first compound 2 µg/mL	first compound 4 µg/mL
partner 2 µg/mL	0.934	0.942	0.958	–	–	–
partner 4 µg/mL	0.92	0.958	0.953	–	–	–
partner 5.14 µg/mL	–	–	–	0.716	0.243	0.0653
partner 8 µg/mL	0.756	0.775	0.805	–	–	–

fitness, [1]
Settings	first compound 1 µg/mL	first compound 2 µg/mL	first compound 4 µg/mL
partner 1.285 µg/mL	0.762	0.226	0.0641
partner 2.57 µg/mL	0.768	0.336	0.0742

Settings	Bliss interaction score
[2]	0.0716
[3]	0.145
[4]	0.0656
[5]	0.168

CNC(C)C1CCC(N)C(OC2C(N)CC(N)C(OC3OCC(C)(O)C(NC)C3O)C2O)O1 (configuration not stated) [Gentamicin] + CO[C@H]1/C=C/O[C@@]2(C)Oc3c(C)c(O)c4c(O)c(c(/C=N/N5CCN(C)CC5)c(O)c4c3C2=O)NC(=O)/C(C)=C\C=C\[C@H](C)[C@H](O)[C@@H](C)[C@@H](O)[C@@H](C)[C@H](OC(C)=O)[C@@H]1C [Rifampicin]
[1], partner 0.025 µg/mL, main component drawn
Settings	fitness
first compound 2 µg/mL	≥ 1
first compound 4 µg/mL	≥ 1
first compound 8 µg/mL	0.935

[1], partner 0.2 µg/mL, one replicate, main component drawn
Settings	fitness
first compound 2 µg/mL	0
first compound 4 µg/mL	0
first compound 8 µg/mL	0

main component drawn
Settings	Bliss interaction score
[2]	0.225
[3]	0.0516
[4]	0.0286
[5]	0.083

CNC(C)C1CCC(N)C(OC2C(N)CC(N)C(OC3OCC(C)(O)C(NC)C3O)C2O)O1 (configuration not stated) [Gentamicin] + C[C@@H](O)[C@H]1C(=O)N2C(C(=O)O)=C(SCCNC=N)C[C@H]12 [Imipenem]
fitness, [1], main component drawn
Settings	partner 0.005 µg/mL	partner 0.0065 µg/mL	partner 0.01 µg/mL	partner 0.013 µg/mL	partner 0.02 µg/mL	partner 0.026 µg/mL
first compound 2 µg/mL	0.924	0.989	0.915	≥ 1	0.914	0.661
first compound 4 µg/mL	0.928	0.971	0.922	0.996	0.92	0.964
first compound 8 µg/mL	0.895	0.917	0.864	0.931	0.874	0.892

main component drawn
Settings	Bliss interaction score
[2]	0.199
[3]	0.0591
[4]	-0.0478
[5]	0.0671

CNC(C)C1CCC(N)C(OC2C(N)CC(N)C(OC3OCC(C)(O)C(NC)C3O)C2O)O1 (configuration not stated) [Gentamicin] + Clc1ccc(COC(Cn2ccnc2)c2ccc(Cl)cc2Cl)c(Cl)c1 [Miconazole]
fitness, [1], main component drawn
Settings	partner 1.073 µg/mL	partner 1.25 µg/mL	partner 2.145 µg/mL	partner 2.5 µg/mL	partner 4.29 µg/mL	partner 5 µg/mL
first compound 2 µg/mL	≥ 1	0.915	≥ 1	0.901	0.912	0.905
first compound 4 µg/mL	≥ 1	0.884	0.998	0.893	0.987	0.911
first compound 8 µg/mL	0.996	0.838	≥ 1	0.868	0.913	0.875

main component drawn
Settings	Bliss interaction score
[2]	-0.151
[3]	0.102
[4]	0.0417
[5]	0.0753

CNC(C)C1CCC(N)C(OC2C(N)CC(N)C(OC3OCC(C)(O)C(NC)C3O)C2O)O1 (configuration not stated) [Gentamicin] + O=C1CN(/N=C/c2ccc([N+](=O)[O-])o2)C(=O)N1 [Nitrofurantoin]
fitness, [1], main component drawn
Settings	partner 1.285 µg/mL	partner 2 µg/mL	partner 2.57 µg/mL	partner 4 µg/mL	partner 8 µg/mL
first compound 2 µg/mL	0.948	0.861	0.951	0.791	0.45
first compound 4 µg/mL	0.943	0.897	0.945	0.747	0.409
first compound 8 µg/mL	0.953	0.831	0.957	0.659	0.368

[1], partner 5.14 µg/mL, one replicate, main component drawn
Settings	fitness
first compound 2 µg/mL	0.945
first compound 4 µg/mL	0.947
first compound 8 µg/mL	0.918

main component drawn
Settings	Bliss interaction score
[2]	-0.138
[3]	-0.0432
[4]	0.0572
[5]	0.0782

Clc1ccc(COC(Cn2ccnc2)c2ccc(Cl)cc2Cl)c(Cl)c1 (configuration not stated) [Miconazole] + C/C(=C\C(=O)OCCCCCCCCC(=O)O)C[C@@H]1OC[C@H](C[C@@H]2O[C@H]2[C@@H](C)[C@H](C)O)[C@@H](O)[C@H]1O [Pseudomonic acid]
fitness, [1]
Settings	first compound 1.073 µg/mL	first compound 1.25 µg/mL	first compound 2.145 µg/mL	first compound 2.5 µg/mL	first compound 4.29 µg/mL	first compound 5 µg/mL
partner 0.03 µg/mL	0.988	0.915	≥ 1	0.894	≥ 1	0.88
partner 0.06 µg/mL	0.914	0.746	0.94	0.754	0.981	0.681
partner 0.12 µg/mL	0.734	0.563	0.759	0.551	–	0.549

Settings	Bliss interaction score
[2]	-0.0459
[3]	0.0125
[4]	-0.0143
[5]	0.126
